Experimental data taken from patent US8883963B2 (Cadila Healthcare Limited, priority 2007, dated 2014).
Non-standard residues stand in square brackets, D forms with d. Residues, ends and D or L forms follow the SMILES beside them. ξ: configuration not given here. *: point of attachment. X5 = CCc1cc(OC)ccc1-c1ccc(CC(N*)C(=S)NC(CCCc2ccccc2F)C(N)=O)cc1; Leu(5,5,5,5',5',5'-F6) = N[C@@H](CC(C(F)(F)F)C(F)(F)F)C(=O)O; ξBip(2'-Et-4'-OMe) = CCc1cc(OC)ccc1-c1ccc(CC(N)C(=O)O)cc1; ξNva(5-(3,5-Me2-Ph)) = Cc1cc(C)cc(CCCC(N)C(=O)O)c1; ξαMePhe(2-F) = CC(N)(Cc1ccccc1F)C(=O)O; aThr = C[C@H](O)[C@H](N)C(=O)O; Ac5c = NC1(C(=O)O)CCCC1; Aib = CC(C)(N)C(=O)O

Assays:
[1] = system: RIN5F (Rat Insulinoma) cells; test: In vitro glucose-dependent insulin secretion (RIN5F cell assay screening protocol); format: cell-based; conditions: 16.7 mM glucose load
human glucagon receptor = target: T1, human glucagon receptor (Homo sapiens, UniProt P47871); test: In vitro human glucagon antagonist activity (inhibition of cAMP production) in CHO/human glucagon R cells; format: cell-based; conditions: with saturated concentration of glucagon peptide
T1 construct: The full-length cDNA was cloned in pcDNA3.1 (Invitrogen); expressed in transfected cells
Procedure: The CHO-K1 cells (CRL 9618) were obtained from American Type Culture Collection (Rockville, Md.). CHO cells were grown in Ham's F12 medium containing L-Glutamine (2 mM), HEPES (25 mM), NaHCO3 (1.1 g/L) and supplemented with newborn Calf Serum (NBCS; 10%), Penicillin (50 U/ml (v/v)) and Streptomycin (50 ug/ml (v/v)). Cells were split every 3 days 1:8.
The full-length cDNA was cloned in pcDNA3.1 (Invitrogen). […] Clones expressing the receptor were generated by G418 (800 μg/ml active, Sigma) selection. The stable clones were thereafter maintained at 500 ug/ml (G418). The selected clone was used between passages 9-25 for cAMP assays.
The cells were trypsinized using 2 ml of TPVG (0.25% trypsin, 0.53 mM EDTA, 1.38-mM glucose). The trypsin was inactivated using Ham's F12 medium containing 10% NBCS and the cells were suspended in 2 ml of complete medium. […] The medium was aspirated off from the 12 well plate and the cells were washed once using Ham's F12 (plain). The cells were incubated at 37° C. with 500 ul of Ham's F12+1% BSA+0.125 mM RO-20 for 30 min. […] After the incubation, the medium was removed and cells were washed once with plain Ham's F12. Subsequently, the cells were lysed by adding 500 ul of ice cold 0.1 N HCl to each well and shaking for 30 minutes at 200 rpm. The cells were then scrapped, the lysate was collected in micro centrifuge tubes and centrifuged at 12000 rpm for 10 min to remove the debris. 300 ul of supernatant from each micro-centrifuge tube was then removed into a glass tube and dried under N2 for 30 min, for cAMP estimation. The total cAMP was estimated from the sample according to the manufacturer's protocol using Cyclic AMP immunoassay kit (R&D systems, Minneapolis. MN). The remaining supernatant is used to determine the protein concentration using micro BCA (Sigma). Data is calculated as percent of control (Vehicle: water) and expressed as Mean+SD.

T1 sequence (P47871 26-477): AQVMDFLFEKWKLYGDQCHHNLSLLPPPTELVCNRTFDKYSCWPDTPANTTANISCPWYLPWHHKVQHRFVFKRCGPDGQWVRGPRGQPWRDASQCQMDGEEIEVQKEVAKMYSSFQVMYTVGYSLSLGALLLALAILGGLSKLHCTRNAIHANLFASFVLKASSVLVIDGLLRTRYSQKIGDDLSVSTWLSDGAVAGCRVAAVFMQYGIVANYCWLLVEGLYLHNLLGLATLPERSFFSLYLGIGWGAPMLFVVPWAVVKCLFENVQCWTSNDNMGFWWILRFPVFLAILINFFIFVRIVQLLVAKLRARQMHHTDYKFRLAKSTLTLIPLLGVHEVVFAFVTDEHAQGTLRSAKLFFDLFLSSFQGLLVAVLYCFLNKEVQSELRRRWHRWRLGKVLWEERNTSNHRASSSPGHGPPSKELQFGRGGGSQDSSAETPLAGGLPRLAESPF

Structure (SMILES) | Insulin secretion ([1]; 0.1 nM test compd.) [pg/µg/h] | Insulin secretion ([1]; 1 nM test compd.) [pg/µg/h] | Insulin secretion ([1]; 10 nM test compd.) [pg/µg/h] | Human Glucagon receptor antagonistic activity shown as inhibition of cAMP production of Glucagon peptide (human glucagon receptor; 1 nM test compound) [pmol/ml/μg prt] | Human Glucagon receptor antagonistic activity shown as inhibition of cAMP production of Glucagon peptide (human glucagon receptor; 10 nM test compound) [pmol/ml/μg prt] | Human Glucagon receptor antagonistic activity shown as inhibition of cAMP production of Glucagon peptide (human glucagon receptor; 100 nM test compound) [pmol/ml/μg prt] | Human Glucagon receptor antagonistic activity shown as inhibition of cAMP production of Glucagon peptide (human glucagon receptor; 1 μM test compound) [pmol/ml/μg prt] | Human Glucagon receptor antagonistic activity shown as inhibition of cAMP production of Glucagon peptide (human glucagon receptor; 10 μM test compound) [pmol/ml/μg prt]
CCc1cc(OC)ccc1-c1ccc(CC(NC(=O)[C@H](CC(=O)O)NC(=O)[C@H](CO)NC(=O)[C@@H](NC(=O)C(C)(Cc2ccccc2F)NC(=O)[C@@H](NC(=O)CNC(=O)[C@H](CCC(N)=O)NC(=O)C(C)(C)NC(=O)[C@@H](N)Cc2c[nH]cn2)[C@@H](C)O)[C@@H](C)O)C(=O)NC(CCCc2ccc(Cl)cc2C)C(N)=O)cc1 (single isomer, unassigned) [compound 40] | 12.6 ± 0.20 | 15.9 ± 0.31 | 28.4 ± 0.11 | 18 ± 0.07 | 16 ± 0.01 | 12 ± 0.03 | 8 ± 0.02 | 6 ± 0.08
CCc1cc(OC)ccc1-c1ccc(CC(CNC(CCCc2ccccc2F)C(N)=O)NC(=O)[C@H](CC(=O)O)NC(=O)[C@H](CO)NC(=O)[C@@H](NC(=O)C(C)(Cc2ccccc2F)NC(=O)[C@@H](NC(=O)CNC(=O)C(CCC#N)NC(=O)C(C)(C)NC(=O)[C@@H](N)Cc2c[nH]cn2)[C@H](C)O)[C@H](C)O)cc1 (single isomer, unassigned) [compound 192] | 16.6 ± 0.41 | 22.9 ± 0.32 | 36.7 ± 0.11 | 4 ± 0.09 | 2 ± 0.12 | 0 | 0 | 0
CCc1cc(OC)ccc1-c1ccc(CC(NC(=O)[C@H](CC(=O)O)NC(=O)[C@H](CO)NC(=O)[C@@H](NC(=O)C(C)(Cc2ccccc2F)NC(=O)[C@@H](NC(=O)CNC(=O)[C@H](CC(C(F)(F)F)C(F)(F)F)NC(=O)C(C)(C)NC(=O)[C@@H](N)Cc2c[nH]cn2)[C@@H](C)O)[C@@H](C)O)C(=O)NC(CCCc2ccc(Cl)cc2C)C(N)=O)cc1 (single isomer, unassigned) [compound 237] | 12.0 ± 0.14 | 14.3 ± 0.12 | 27.8 ± 0.32 | 21 ± 0.11 | 19 ± 0.02 | 18 ± 0.07 | 18 ± 0.03 | 16 ± 0.02
CCc1cc(OC)ccc1-c1ccc(CC(NC(=O)[C@H](CC(=O)O)NC(=O)[C@H](CO)NC(=O)[C@@H](NC(=O)[C@H](Cc2ccccc2)NC(=O)[C@@H](NC(=O)CNC(=O)[C@H](CCC(N)=O)NC(=O)C2(NC(=O)[C@@H](N)Cc3c[nH]cn3)CCCC2)[C@@H](C)O)[C@@H](C)O)C(=O)NC(CCCc2cc(C)cc(C)c2)C(N)=O)cc1 (stereo partly drawn) [compound 26] (H-H[Ac5c]QGTFTSD[ξBip(2'-Et-4'-OMe)][ξNva(5-(3,5-Me2-Ph))]-NH2) | 16.6 ± 0.41 | 22.9 ± 0.32 | 36.6 ± 0.19 | 15 ± 0.11 | 12 ± 0.13 | 8 ± 0.09 | 4 ± 0.01 | 2 ± 0.08
CCc1cc(OC)ccc1-c1ccc(CC(NC(=O)[C@H](CC(=O)O)NC(=O)[C@H](CO)NC(=O)[C@@H](NC(=O)C(C)(Cc2ccccc2F)NC(=O)[C@@H](NC(=O)CNC(=O)[C@H](CC(C(F)(F)F)C(F)(F)F)NC(=O)C(C)(C)NC(=O)[C@@H](N)Cc2c[nH]cn2)[C@@H](C)O)[C@H](C)O)C(=O)NC(CCCc2ccccc2)C(N)=O)cc1 (single isomer, unassigned) [compound 225] | 12.4 ± 0.22 | 15.2 ± 0.32 | 29.6 ± 0.50 | 5 ± 0.01 | 2 ± 0.17 | 0 | 0 | 0
CCc1cc(OC)ccc1-c1ccc(CC(NC(=O)[C@H](CC(=O)O)NC(=O)[C@H](CO)NC(=O)[C@@H](NC(=O)C(C)(Cc2ccccc2F)NC(=O)[C@@H](NC(=O)CNC(=O)[C@H](CC(C(F)(F)F)C(F)(F)F)NC(=O)C(C)(C)NC(=O)[C@@H](N)Cc2c[nH]cn2)[C@H](C)O)[C@H](C)O)C(=S)NC(CCCc2ccccc2F)C(N)=O)cc1 (stereo partly drawn) [compound 218] (H-H[Aib][Leu(5,5,5,5',5',5'-F6)]G[aThr][ξαMePhe(2-F)][aThr]SD-X5) | 12.3 ± 0.33 | 14.8 ± 0.16 | 28.1 ± 0.22 | 9 ± 0.11 | 6 ± 0.12 | 5 ± 0.14 | 3 ± 0.22 | 0
CCc1cc(OC)ccc1-c1ccc(CC(NC(=O)[C@H](CC(=O)O)NC(=O)[C@H](CO)NC(=O)[C@@H](NC(=O)C(C)(Cc2ccccc2F)NC(=O)[C@@H](NC(=O)CNC(=O)[C@H](CCC(N)=O)NC(=O)C(C)(C)NC(=O)[C@@H](N)Cc2c[nH]cn2)[C@@H](C)O)[C@@H](C)O)C(=O)NC(CCCc2cccc(Cl)c2)C(N)=O)cc1 (single isomer, unassigned) [compound 39] | 11.1 ± 0.12 | 13.1 ± 0.13 | 19.0 ± 0.16 |  |  |  |  | 
